# Key:
# [1] = tested on: C3H Mammary adenocarcinoma 16/C; experiment: Growth of subcutaneous transplants of C3H mammary adenocarcinoma 16/C in B6C3F1 female mice; format: in vivo; details: 98 mg/kg, i.p., qd (1,7,14,21)
# Source text: Anticancer activities of n-T4GEN were studied in animals bearing subcutaneous transplants of C3H Mammary adenocarcinoma 16/C. This tumor is maintained as a lung passed tumor in C3H female mice. In this example, tumors (1×10^6 cells) were transplanted (S.C.) in 18-20 g B6C3F^1 hybrid female mice. On the following day, the tumor bearing animals were randomized and separated into different treatment groups (10 mice per group). There were 15 animals in the control group who received only physiological saline during the treatment periods. […] Animals were weighed on days 5, 9 and 14 to assess toxic effects. Tumors were measured on days 21, 28 post transplants and the results are represented as tumor weights using formula [formula]
# [2] = Weight change of tumor-bearing mice to assess toxic effects; format: in vivo; details: 98 mg/kg, i.p., qd (1,7,14,21)
# Source text: Anticancer activities of n-T4GEN were studied in animals bearing subcutaneous transplants of C3H Mammary adenocarcinoma 16/C. This tumor is maintained as a lung passed tumor in C3H female mice. In this example, tumors (1×10^6 cells) were transplanted (S.C.) in 18-20 g B6C3F^1 hybrid female mice. On the following day, the tumor bearing animals were randomized and separated into different treatment groups (10 mice per group). There were 15 animals in the control group who received only physiological saline during the treatment periods. The treatments (i.p.) were started 48 hours after the transplants and given for a duration of 14 days (daily single injections). Animals were weighed on days 5, 9 and 14 to assess toxic effects. Tumors were measured on days 21, 28 post transplants and the results are represented as tumor weights using formula [formula]
structure (smiles),measurement,setting,value
O=c1[nH]cc(F)c(=O)[nH]1 [5Fluorouracil],Tumor Free Animals (day 93),[1],0/6
same,Tumor Inhibition %,[1],100%
same,Tumor Wts (day 21),[1],0.00
same,Δ Wts (g) (day 14),[2],+1.77 g

# Reference: patent US5565200A, “Pharmaceutical preparations derived from korean mistletoe” (priority 1995, dated 1996)
